Columns and labels:
Experiment in all cases: Test G preemergence/postemergence greenhouse plant response rating 0 to 100
alfalfa = type: in vivo, Medicago ativa; conditions: 0 to 100 scale
From the text: (§1) Seeds, rhizomes, or plant parts of alfalfa (Medicago ativa), annual bluegrass (Poa annua), bermudagrass (Cynodon dactylon), broadleaf signalgrass (Brachiaria plantaginea), common purslane (Portulaca oleracea), common ragweed (Ambrosia elatior), […] (Paspalum dilatatum), goosegrass (Eleusine indica), guineagrass (Panicum maximum), […] exaltata), johnsongrass (Sorghum halepense), large crabgrass (Digitaria sanguinalis), peanut (Arachis hypoagaea), pitted morningglory (Ipomoea lacunosa), purple nutsedge (Cyperus rotundus), sandbur (Cenchrus echinatus), smooth crabgrass (Digitaria ischaemum) and yellow nutsedge (Cyperus esculentus) were planted into greenhouse pots containing greenhouse planting medium. Each pot contained only one plant species. The test compound was dissolved in a non-phytotoxic solvent and applied preemergence and/or postemergence to the plants. Preemergence applications were made within one day of planting the seeds or plant parts. Postemergence applications were applied when the plants were in the two to four leaf stage (three to twenty cm). Test chemicals were dissolved in a non-phytotoxic solvent and applied preemergence and postemergence to the plants. Untreated control plants and treated plants were placed in the greenhouse and visually evaluated for injury at 13 to 21 days after herbicide application. […] A dash (-) response indicates no test result.

annual bluegrass = type: in vivo, Poa annua; conditions: 0 to 100 scale
From the text: as §1

bermudagrass = type: in vivo, Cynodon dactylon; conditions: 0 to 100 scale
From the text: as §1

broadleaf signalgrass = type: in vivo, Brachiaria plantaginea; conditions: 0 to 100 scale
From the text: as §1

common purslane = type: in vivo, Portulaca oleracea; conditions: 0 to 100 scale
From the text: as §1

common ragweed = type: in vivo, Ambrosia elatior; conditions: 0 to 100 scale
From the text: as §1

dallisgrass = type: in vivo, Paspalum dilatatum; conditions: 0 to 100 scale
From the text: as §1

goosegrass = type: in vivo, Eleusine indica; conditions: 0 to 100 scale
From the text: as §1

guineagrass = type: in vivo, Panicum maximum; conditions: 0 to 100 scale
From the text: as §1

itchgrass = type: in vivo, Rottboellia exaltata; conditions: 0 to 100 scale
From the text: as §1

johnsongrass = type: in vivo, Sorghum halepense; conditions: 0 to 100 scale
From the text: as §1

large crabgrass = type: in vivo, Digitaria sanguinalis; conditions: 0 to 100 scale
From the text: as §1

peanut = type: in vivo, Arachis hypoagaea; conditions: 0 to 100 scale
From the text: as §1

pitted morningglory = type: in vivo, Ipomoea lacunosa; conditions: 0 to 100 scale
From the text: as §1

purple nutsedge = type: in vivo, Cyperus rotundus; conditions: Rate 125 g/ha, 0 to 100 scale
From the text: as §1

sandbur = type: in vivo, Cenchrus echinatus; conditions: 0 to 100 scale
From the text: as §1

smooth crabgrass = type: in vivo, Digitaria ischaemum; conditions: 0 to 100 scale
From the text: as §1

yellow nutsedge = type: in vivo, Cyperus esculentus; conditions: Rate 125 g/ha, 0 to 100 scale
From the text: as §1

Q: `CCCOc1cc(-c2nn3c(c2Cl)CCCC3)c(F)cc1Cl` [Compound 23] was tested. Which “Plant response rating, Alfalfa Var.” value (alfalfa; POSTEMERGENCE, Rate 125 g/ha) did it give?
A: 0

Q: What about the “Plant response rating, Alfalfa Var.” value (alfalfa; POSTEMERGENCE, Rate 250 g/ha) of the same compound?
A: 0

Q: And the “Plant response rating, Alfalfa Var.” value (alfalfa; PREEMERGENCE, Rate 125 g/ha)?
A: 0

Q: What about the “Plant response rating, Alfalfa Var.” value (alfalfa; PREEMERGENCE, Rate 250 g/ha) of the same compound?
A: 0

Q: What about the “Plant response rating, Ann Bluegrass” value (annual bluegrass; POSTEMERGENCE, Rate 125 g/ha) of the same compound?
A: 0

Q: What about the “Plant response rating, Ann Bluegrass” value (annual bluegrass; POSTEMERGENCE, Rate 250 g/ha) of the same compound?
A: 0

Q: And the “Plant response rating, Ann Bluegrass” value (annual bluegrass; PREEMERGENCE, Rate 125 g/ha)?
A: 0

Q: And the “Plant response rating, Ann Bluegrass” value (annual bluegrass; PREEMERGENCE, Rate 250 g/ha)?
A: 0

Q: And the “Plant response rating, Bermudagrass” value (bermudagrass; POSTEMERGENCE, Rate 125 g/ha)?
A: 0

Q: What about the “Plant response rating, Bermudagrass” value (bermudagrass; POSTEMERGENCE, Rate 250 g/ha) of the same compound?
A: 0

Q: What about the “Plant response rating, Bermudagrass” value (bermudagrass; PREEMERGENCE, Rate 125 g/ha) of the same compound?
A: 0

Q: And the “Plant response rating, Bermudagrass” value (bermudagrass; PREEMERGENCE, Rate 250 g/ha)?
A: 50

Q: What about the “Plant response rating, Brdlf Sgnlgrass” value (broadleaf signalgrass; POSTEMERGENCE, Rate 125 g/ha) of the same compound?
A: 0

Q: What about the “Plant response rating, Brdlf Sgnlgrass” value (broadleaf signalgrass; POSTEMERGENCE, Rate 250 g/ha) of the same compound?
A: 0

Q: What about the “Plant response rating, Brdlf Sgnlgrass” value (broadleaf signalgrass; PREEMERGENCE, Rate 125 g/ha) of the same compound?
A: 0

Q: What about the “Plant response rating, Brdlf Sgnlgrass” value (broadleaf signalgrass; PREEMERGENCE, Rate 250 g/ha) of the same compound?
A: 0

Q: What about the “Plant response rating, Cmn Purslane” value (common purslane; POSTEMERGENCE, Rate 125 g/ha) of the same compound?
A: 70

Q: And the “Plant response rating, Cmn Purslane” value (common purslane; POSTEMERGENCE, Rate 250 g/ha)?
A: 50

Q: And the “Plant response rating, Cmn Purslane” value (common purslane; PREEMERGENCE, Rate 125 g/ha)?
A: 0

Q: What about the “Plant response rating, Cmn Purslane” value (common purslane; PREEMERGENCE, Rate 250 g/ha) of the same compound?
A: 100

Q: And the “Plant response rating, Cmn Ragweed” value (common ragweed; POSTEMERGENCE, Rate 125 g/ha)?
A: 60

Q: And the “Plant response rating, Cmn Ragweed” value (common ragweed; POSTEMERGENCE, Rate 250 g/ha)?
A: 20

Q: And the “Plant response rating, Cmn Ragweed” value (common ragweed; PREEMERGENCE, Rate 125 g/ha)?
A: 0

Q: What about the “Plant response rating, Cmn Ragweed” value (common ragweed; PREEMERGENCE, Rate 250 g/ha) of the same compound?
A: 0

Q: What about the “Plant response rating, Dallisgrass” value (dallisgrass; POSTEMERGENCE, Rate 125 g/ha) of the same compound?
A: 0

Q: And the “Plant response rating, Dallisgrass” value (dallisgrass; POSTEMERGENCE, Rate 250 g/ha)?
A: 0

Q: And the “Plant response rating, Dallisgrass” value (dallisgrass; PREEMERGENCE, Rate 125 g/ha)?
A: 0

Q: And the “Plant response rating, Dallisgrass” value (dallisgrass; PREEMERGENCE, Rate 250 g/ha)?
A: 20

Q: What about the “Plant response rating, Goosegrass” value (goosegrass; POSTEMERGENCE, Rate 125 g/ha) of the same compound?
A: 0

Q: And the “Plant response rating, Goosegrass” value (goosegrass; POSTEMERGENCE, Rate 250 g/ha)?
A: 0

Q: And the “Plant response rating, Goosegrass” value (goosegrass; PREEMERGENCE, Rate 125 g/ha)?
A: 90

Q: And the “Plant response rating, Goosegrass” value (goosegrass; PREEMERGENCE, Rate 250 g/ha)?
A: 40

Q: What about the “Plant response rating, Guineagrass” value (guineagrass; POSTEMERGENCE, Rate 125 g/ha) of the same compound?
A: 0

Q: And the “Plant response rating, Guineagrass” value (guineagrass; POSTEMERGENCE, Rate 250 g/ha)?
A: 0

Q: And the “Plant response rating, Guineagrass” value (guineagrass; PREEMERGENCE, Rate 125 g/ha)?
A: 0

Q: What about the “Plant response rating, Guineagrass” value (guineagrass; PREEMERGENCE, Rate 250 g/ha) of the same compound?
A: 0

Q: And the “Plant response rating, Itchgrass” value (itchgrass; POSTEMERGENCE, Rate 125 g/ha)?
A: 0

Q: And the “Plant response rating, Itchgrass” value (itchgrass; POSTEMERGENCE, Rate 250 g/ha)?
A: 0

Q: What about the “Plant response rating, Itchgrass” value (itchgrass; PREEMERGENCE, Rate 125 g/ha) of the same compound?
A: 0

Q: And the “Plant response rating, Itchgrass” value (itchgrass; PREEMERGENCE, Rate 250 g/ha)?
A: 0

Q: What about the “Plant response rating, Johnsongrass” value (johnsongrass; POSTEMERGENCE, Rate 125 g/ha) of the same compound?
A: 0

Q: What about the “Plant response rating, Johnsongrass” value (johnsongrass; POSTEMERGENCE, Rate 250 g/ha) of the same compound?
A: 0

Q: What about the “Plant response rating, Johnsongrass” value (johnsongrass; PREEMERGENCE, Rate 125 g/ha) of the same compound?
A: 0

Q: And the “Plant response rating, Johnsongrass” value (johnsongrass; PREEMERGENCE, Rate 250 g/ha)?
A: 0

Q: And the “Plant response rating, Large Crabgrass” value (large crabgrass; POSTEMERGENCE, Rate 125 g/ha)?
A: 0

Q: And the “Plant response rating, Large Crabgrass” value (large crabgrass; POSTEMERGENCE, Rate 250 g/ha)?
A: 0

Q: And the “Plant response rating, Large Crabgrass” value (large crabgrass; PREEMERGENCE, Rate 125 g/ha)?
A: 0

Q: What about the “Plant response rating, Large Crabgrass” value (large crabgrass; PREEMERGENCE, Rate 250 g/ha) of the same compound?
A: 70

Q: And the “Plant response rating, Peanuts” value (peanut; POSTEMERGENCE, Rate 125 g/ha)?
A: 0

Q: What about the “Plant response rating, Peanuts” value (peanut; POSTEMERGENCE, Rate 250 g/ha) of the same compound?
A: 0

Q: What about the “Plant response rating, Peanuts” value (peanut; PREEMERGENCE, Rate 125 g/ha) of the same compound?
A: 0

Q: And the “Plant response rating, Peanuts” value (peanut; PREEMERGENCE, Rate 250 g/ha)?
A: 0

Q: What about the “Plant response rating, Pit Morninglory” value (pitted morningglory; POSTEMERGENCE, Rate 125 g/ha) of the same compound?
A: 0

Q: And the “Plant response rating, Pit Morninglory” value (pitted morningglory; POSTEMERGENCE, Rate 250 g/ha)?
A: 0

Q: And the “Plant response rating, Pit Morninglory” value (pitted morningglory; PREEMERGENCE, Rate 125 g/ha)?
A: 0

Q: What about the “Plant response rating, Pit Morninglory” value (pitted morningglory; PREEMERGENCE, Rate 250 g/ha) of the same compound?
A: 0

Q: And the “Plant response rating, Purple Nutsedge” value (purple nutsedge; POSTEMERGENCE)?
A: 0

Q: What about the “Plant response rating, Purple Nutsedge” value (purple nutsedge; PREEMERGENCE) of the same compound?
A: 0

Q: And the “Plant response rating, S. Sandbur” value (sandbur; POSTEMERGENCE, Rate 125 g/ha)?
A: 0

Q: And the “Plant response rating, S. Sandbur” value (sandbur; POSTEMERGENCE, Rate 250 g/ha)?
A: 0

Q: What about the “Plant response rating, S. Sandbur” value (sandbur; PREEMERGENCE, Rate 125 g/ha) of the same compound?
A: 0

Q: And the “Plant response rating, S. Sandbur” value (sandbur; PREEMERGENCE, Rate 250 g/ha)?
A: 0

Q: And the “Plant response rating, Smooth Crabgras” value (smooth crabgrass; POSTEMERGENCE, Rate 125 g/ha)?
A: 0

Q: And the “Plant response rating, Smooth Crabgras” value (smooth crabgrass; POSTEMERGENCE, Rate 250 g/ha)?
A: 0

Q: What about the “Plant response rating, Smooth Crabgras” value (smooth crabgrass; PREEMERGENCE, Rate 125 g/ha) of the same compound?
A: 0

Q: And the “Plant response rating, Smooth Crabgras” value (smooth crabgrass; PREEMERGENCE, Rate 250 g/ha)?
A: 20

Q: What about the “Plant response rating, Yellow Nutsedge” value (yellow nutsedge; POSTEMERGENCE) of the same compound?
A: 0

Q: What about the “Plant response rating, Yellow Nutsedge” value (yellow nutsedge; PREEMERGENCE) of the same compound?
A: 0

Reference: US6358885B1, “Substituted phenylheterocyclic herbicides” (Mississippi State University, priority 1992, dated 2002)
